In patent US20230116114A1, “COMPOUNDS AND COMPOSITIONS FOR TREATING CNS DISORDERS” (Blue Oak Pharmaceuticals, Inc., priority 2020, published 2023):
Where a name gives a salt, the structure may show the parent alone.

Test system: mice
Assay: SmartCube in vivo neuropharmacological behavioral assay
Conditions: for minimal effective dose: Mus musculus, ip, 0.25 h, dose having 50% or more total activity in SmartCube, i.p., read-out: MED (minimal effective dose); for AD: antidepressant (percent probability) / AG: analgesic (percent probability) / AP: antipsychotic (percent probability) / AX: anxiolytic (percent probability) / CE: cognitive enhancer (percent probability) / HA: hallucinogenic (percent probability) / MS: mood stabilizer (percent probability) / PS (percent probability) / SD: sedative hypnotic (percent probability) / SE: side effects (percent probability) / UN: uncharacterized CNS activity (percent probability) / XG: anxiogenic (percent probability): SmartCube, i.p. 15 min before test, result at the MED
Outline: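 Mice dosed i.p. in NMP (Pharmasolve) 15 min before automated video behavioral testing at several doses (e.g., 0.3-30 mpk). Signatures compared to reference drug classes giving per-class probabilities (0-100); MED is the lowest dose with ≥50% total activity.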

SMILES | minimal effective dose [mg/kg] | AD: antidepressant (percent probability) | AG: analgesic (percent probability) | AP: antipsychotic (percent probability) | AX: anxiolytic (percent probability) | CE: cognitive enhancer (percent probability) | HA: hallucinogenic (percent probability) | MS: mood stabilizer (percent probability) | PS (percent probability) | SD: sedative hypnotic (percent probability) | SE: side effects (percent probability) | UN: uncharacterized CNS activity (percent probability) | XG: anxiogenic (percent probability)
CC1CC2c3ccccc3C(C1)N2C1CCC1 (centres unmarked) [Compound 36, 12-Cyclobutyl-10-methyl-12-azatricyclo[6.3.1.0^2,7]dodeca-2,4,6-triene hydrochloride] | 1 to 10 | ++++ (50% ≤ X < 100%) | + (LOQ ≤ X < 5%) | + (LOQ ≤ X < 5%) | + (LOQ ≤ X < 5%) | + (LOQ ≤ X < 5%) | ++ (5% ≤ X < 25%) | + (LOQ ≤ X < 5%) | + (LOQ ≤ X < 5%) | + (LOQ ≤ X < 5%) | + (LOQ ≤ X < 5%) | ++ (5% ≤ X < 25%) | + (LOQ ≤ X < 5%)
CC1CC2NC(C1)c1ccccc12 (centres unmarked) [Compound 29, 10-Methyl-12-azatricyclo[6.3.1.0^2,7]dodeca-2,4,6-triene hydrochloride] | 1 to 10 | ++ (5% ≤ X < 25%) | ++ (5% ≤ X < 25%) | + (LOQ ≤ X < 5%) | +++ (25% ≤ X < 50%) | + (LOQ ≤ X < 5%) | + (LOQ ≤ X < 5%) | + (LOQ ≤ X < 5%) | + (LOQ ≤ X < 5%) | + (LOQ ≤ X < 5%) | + (LOQ ≤ X < 5%) | + (LOQ ≤ X < 5%) | + (LOQ ≤ X < 5%)
CC(C)N1C2CCC(=O)C1c1ccccc12 (centres unmarked) [Compound 39, hydrochloride] | > 30 | + (LOQ ≤ X < 5%) | + (LOQ ≤ X < 5%) | + (LOQ ≤ X < 5%) | + (LOQ ≤ X < 5%) | + (LOQ ≤ X < 5%) | + (LOQ ≤ X < 5%) | + (LOQ ≤ X < 5%) | + (LOQ ≤ X < 5%) | + (LOQ ≤ X < 5%) | + (LOQ ≤ X < 5%) | + (LOQ ≤ X < 5%) | + (LOQ ≤ X < 5%)
CC(C)CN1C2CCCC1c1ccccc12 [Compound 8, 12-(2-Methylpropyl)-12-azatricyclo[6.3.1.0^2,7]dodeca-2,4,6-triene] | 10 to 30 | ++++ (50% ≤ X < 100%) | + (LOQ ≤ X < 5%) | + (LOQ ≤ X < 5%) | ++ (5% ≤ X < 25%) | + (LOQ ≤ X < 5%) | + (LOQ ≤ X < 5%) | + (LOQ ≤ X < 5%) | ++ (5% ≤ X < 25%) | + (LOQ ≤ X < 5%) | + (LOQ ≤ X < 5%) | + (LOQ ≤ X < 5%) | + (LOQ ≤ X < 5%)
c1ccc2c(c1)C1CCCC2N1C1CCC1 [Compound 10, 12-Cyclobutyl-12-azatricyclo[6.3.1.0^2,7]dodeca-2,4,6-triene hydrochloride] | 1 to 10 | ++++ (50% ≤ X < 100%) | ++ (5% ≤ X < 25%) | + (LOQ ≤ X < 5%) | ++ (5% ≤ X < 25%) | + (LOQ ≤ X < 5%) | ++ (5% ≤ X < 25%) | + (LOQ ≤ X < 5%) | ++ (5% ≤ X < 25%) | + (LOQ ≤ X < 5%) | + (LOQ ≤ X < 5%) | + (LOQ ≤ X < 5%) | + (LOQ ≤ X < 5%)
c1ccc2c(c1)C1CCCC2N1C1CCOC1 (centres unmarked) [Compound 9, 12-(Oxolan-3-yl)-12-azatricyclo[6.3.1.0^2,7]dodeca-2,4,6-triene hydrochloride] | 10 to 30 | +++ (25% ≤ X < 50%) | ++ (5% ≤ X < 25%) | + (LOQ ≤ X < 5%) | ++ (5% ≤ X < 25%) | + (LOQ ≤ X < 5%) | + (LOQ ≤ X < 5%) | + (LOQ ≤ X < 5%) | + (LOQ ≤ X < 5%) | + (LOQ ≤ X < 5%) | + (LOQ ≤ X < 5%) | ++ (5% ≤ X < 25%) | ++ (5% ≤ X < 25%)
FCC(CF)N1C2CCCC1c1ccccc12 [Compound 14, 12-(1,3-Difluoropropan-2-yl)-12-azatricyclo[6.3.1.0^20.7]dodeca-2,4,6-triene hydrochloride] | 10 to 30 | ++ (5% ≤ X < 25%) | +++ (25% ≤ X < 50%) | + (LOQ ≤ X < 5%) | ++ (5% ≤ X < 25%) | + (LOQ ≤ X < 5%) | + (LOQ ≤ X < 5%) | + (LOQ ≤ X < 5%) | + (LOQ ≤ X < 5%) | + (LOQ ≤ X < 5%) | + (LOQ ≤ X < 5%) | + (LOQ ≤ X < 5%) | + (LOQ ≤ X < 5%)
C[C@H]1CC[C@@H]2N[C@H]1c1ccccc12 (stereo in doubt) [Compound 32, 9-Methyl-12-azatricyclo[6.3.1.0^2,7]dodeca-2,4,6-triene hydrochloride] | 10 to 30 | + (LOQ ≤ X < 5%) | + (LOQ ≤ X < 5%) | + (LOQ ≤ X < 5%) | + (LOQ ≤ X < 5%) | + (LOQ ≤ X < 5%) | ++++ (50% ≤ X < 100%) | + (LOQ ≤ X < 5%) | ++ (5% ≤ X < 25%) | + (LOQ ≤ X < 5%) | + (LOQ ≤ X < 5%) | + (LOQ ≤ X < 5%) | + (LOQ ≤ X < 5%)
CN1C2CCCC1c1ccccc12 [Compound 3, 12-Methyl-12-azatricyclo[6.3.1.0^2,7]dodeca-2,4,6-triene hydrochloride] | 10 to 30 | +++ (25% ≤ X < 50%) | ++ (5% ≤ X < 25%) | + (LOQ ≤ X < 5%) | ++ (5% ≤ X < 25%) | + (LOQ ≤ X < 5%) | + (LOQ ≤ X < 5%) | + (LOQ ≤ X < 5%) | + (LOQ ≤ X < 5%) | ++ (5% ≤ X < 25%) | ++ (5% ≤ X < 25%) | ++ (5% ≤ X < 25%) | + (LOQ ≤ X < 5%)
CCCN1C2CCCC1c1ccccc12 [Compound 7, 12-Propyl-12-azatricyclo[6.3.1.0^2,7]dodeca-2,4,6-triene hydrochloride] | 10 to 30 | ++ (5% ≤ X < 25%) | +++ (25% ≤ X < 50%) | + (LOQ ≤ X < 5%) | ++ (5% ≤ X < 25%) | + (LOQ ≤ X < 5%) | + (LOQ ≤ X < 5%) | + (LOQ ≤ X < 5%) | ++ (5% ≤ X < 25%) | + (LOQ ≤ X < 5%) | + (LOQ ≤ X < 5%) | + (LOQ ≤ X < 5%) | + (LOQ ≤ X < 5%)
CCC(CC)N1C2CCCC1c1ccccc12 [Compound 17, 12-(Pentan-3-yl)-12-azatricyclo[6.3.1.0^2,7]dodeca-2,4,6-trienehydrochloride] | 10 to 30 | ++ (5% ≤ X < 25%) | + (LOQ ≤ X < 5%) | + (LOQ ≤ X < 5%) | ++ (5% ≤ X < 25%) | + (LOQ ≤ X < 5%) | + (LOQ ≤ X < 5%) | + (LOQ ≤ X < 5%) | ++++ (50% ≤ X < 100%) | + (LOQ ≤ X < 5%) | + (LOQ ≤ X < 5%) | + (LOQ ≤ X < 5%) | + (LOQ ≤ X < 5%)
